According to PubChem BioAssay (NCI):
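Exposure lasted 48 hours, with cells grown in 96-well plates and compounds tested at five concentrations. Here, GI50 denotes the concentration required for 50% inhibition of growth. TGI: total growth inhibition.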

Legend:
Assay in all cases: DTP human tumour cell line panel, 48 h
SR leukemia = test system: SR leukemia
MDA-MB-435 = test system: MDA-MB-435
M14 melanoma = test system: M14 melanoma
IGROV1 ovarian = test system: IGROV1 ovarian
UO-31 renal = test system: UO-31 renal
PC-3 prostate = test system: PC-3 prostate
OVCAR-4 ovarian = test system: OVCAR-4 ovarian
U251 CNS = test system: U251 CNS
RXF 393 renal = test system: RXF 393 renal
HL-60(TB) leukemia = test system: HL-60(TB) leukemia

Compound: COc1ccc(C2c3cc4c(cc3OC(N3CCCCC3)C2C)OCO4)cc1 (stereo unspecified)
- TGI (SR leukemia): > 100 µM
- TGI (MDA-MB-435): > 100 µM
- TGI (M14 melanoma): > 100 µM
- TGI (IGROV1 ovarian): > 100 µM
- TGI (UO-31 renal): > 100 µM
- TGI (PC-3 prostate): > 100 µM

Compound: c1ccc(C2=C(c3ccccc3)P(c3ccccc3)C2)cc1 (stereo unspecified)
- TGI (OVCAR-4 ovarian): > 100 µM
- TGI (SR leukemia): > 100 µM
- TGI (MDA-MB-435): > 100 µM
- TGI (M14 melanoma): > 100 µM
- TGI (IGROV1 ovarian): > 100 µM
- TGI (U251 CNS): > 100 µM
- TGI (RXF 393 renal): > 100 µM
- TGI (PC-3 prostate): > 100 µM

Compound: COc1ccc2c(c1)CC[C@@H]1[C@@H]2CC[C@]2(C)C(=O)/C(=C/c3cc(OC)c(OC)c(OC)c3)C[C@@H]12
- TGI (OVCAR-4 ovarian): > 100 µM
- TGI (SR leukemia): > 100 µM
- TGI (MDA-MB-435): > 100 µM
- TGI (M14 melanoma): 41.2 µM
- TGI (HL-60(TB) leukemia): > 100 µM
- TGI (U251 CNS): > 100 µM
- TGI (RXF 393 renal): 86.8 µM
- TGI (UO-31 renal): > 100 µM
- TGI (PC-3 prostate): 26.9 µM

Compound: N#Cc1c(N2CCN(c3ccc([N+](=O)[O-])cc3)CC2)[n+](=O)c2ccc(Cl)cc2n1[O-]
- TGI (OVCAR-4 ovarian): 9.52 µM
- TGI (MDA-MB-435): 8.07 µM
- TGI (M14 melanoma): > 23.4 µM
- TGI (IGROV1 ovarian): 2.01 µM
- TGI (U251 CNS): 5.81 µM
- TGI (RXF 393 renal): > 22.7 µM
- TGI (UO-31 renal): 5.75 µM
- TGI (PC-3 prostate): > 36.2 µM

Compound: O=C1/C(=C/c2ccco2)NC(=S)N1CN1CCOCC1
- TGI (OVCAR-4 ovarian): > 100 µM
- TGI (SR leukemia): > 100 µM
- TGI (MDA-MB-435): > 100 µM
- TGI (M14 melanoma): > 100 µM
- TGI (IGROV1 ovarian): > 100 µM
- TGI (U251 CNS): > 100 µM
- TGI (UO-31 renal): > 100 µM
- TGI (PC-3 prostate): > 100 µM

Compound: COc1cc(/C=C/C(=O)OC[C@H](Br)[C@H](OC(C)=O)c2ccc3c(c2)OCO3)cc(OC)c1OC
- TGI (OVCAR-4 ovarian): > 100 µM
- TGI (SR leukemia): > 100 µM
- TGI (MDA-MB-435): > 100 µM
- TGI (M14 melanoma): > 100 µM
- TGI (IGROV1 ovarian): > 100 µM
- TGI (U251 CNS): > 100 µM
- TGI (RXF 393 renal): > 100 µM
- TGI (UO-31 renal): > 100 µM
- TGI (PC-3 prostate): > 100 µM

Compound: O=C(O)/C=C/C(=O)O
- TGI (OVCAR-4 ovarian): > 100 µM
- TGI (SR leukemia): > 100 µM
- TGI (MDA-MB-435): > 100 µM
- TGI (M14 melanoma): > 100 µM
- TGI (HL-60(TB) leukemia): > 100 µM
- TGI (IGROV1 ovarian): > 100 µM
- TGI (U251 CNS): > 100 µM
- TGI (UO-31 renal): > 100 µM
- TGI (PC-3 prostate): > 100 µM

Compound: C/C=C\C(CC(=O)NCCC1CN(C(=O)c2ccccc2)c2ccccc21)CC(=O)OC (stereo unspecified)
- TGI (OVCAR-4 ovarian): > 100 µM
- TGI (MDA-MB-435): > 100 µM
- TGI (M14 melanoma): > 100 µM
- TGI (IGROV1 ovarian): > 100 µM
- TGI (U251 CNS): > 100 µM
- TGI (RXF 393 renal): > 100 µM
- TGI (UO-31 renal): > 100 µM
- TGI (PC-3 prostate): > 100 µM

Compound: Cn1ccc(C(=O)NCCCCCNC(=O)c2ccn(C)c(=O)c2O)c(O)c1=O
- TGI (OVCAR-4 ovarian): > 100 µM
- TGI (SR leukemia): > 100 µM
- TGI (MDA-MB-435): > 100 µM
- TGI (HL-60(TB) leukemia): > 100 µM
- TGI (U251 CNS): > 100 µM
- TGI (UO-31 renal): > 100 µM
- TGI (PC-3 prostate): > 100 µM

Compound: CCOC12SC(=Nc3ccc(C)cc3)NN1C(=S)N(C)N=C2C (stereo unspecified)
- TGI (OVCAR-4 ovarian): > 100 µM
- TGI (SR leukemia): > 100 µM
- TGI (M14 melanoma): > 100 µM
- TGI (HL-60(TB) leukemia): > 100 µM
- TGI (IGROV1 ovarian): > 100 µM
- TGI (U251 CNS): > 100 µM
- TGI (RXF 393 renal): > 100 µM

Compound: NC(=O)CS(=O)CC(N)C(=O)O (stereo unspecified)
- TGI (OVCAR-4 ovarian): > 100 µM
- TGI (SR leukemia): > 100 µM
- TGI (MDA-MB-435): > 100 µM
- TGI (M14 melanoma): > 100 µM
- TGI (IGROV1 ovarian): > 100 µM
- TGI (U251 CNS): > 100 µM
- TGI (RXF 393 renal): > 100 µM
- TGI (UO-31 renal): > 100 µM
- TGI (PC-3 prostate): > 100 µM

Compound: CCC(C)C1(O)OC2CC3(C)OC(=CC3=O)/C(C)=C\C3OC(=O)C1(C)C32 (stereo unspecified)
- TGI (OVCAR-4 ovarian): > 100 µM
- TGI (SR leukemia): 73.5 µM
- TGI (MDA-MB-435): > 100 µM
- TGI (M14 melanoma): > 100 µM
- TGI (HL-60(TB) leukemia): 63.8 µM
- TGI (IGROV1 ovarian): 53.5 µM
- TGI (U251 CNS): > 100 µM
- TGI (UO-31 renal): 47.4 µM
- TGI (PC-3 prostate): > 100 µM

Compound: O=C(/C=C/c1ccccc1O)/C=C/c1ccccc1O
- TGI (OVCAR-4 ovarian): 7.7 µM
- TGI (SR leukemia): > 100 µM
- TGI (MDA-MB-435): 4.64 µM
- TGI (M14 melanoma): 3.55 µM
- TGI (HL-60(TB) leukemia): 7.62 µM
- TGI (IGROV1 ovarian): 3.31 µM
- TGI (U251 CNS): 2.89 µM
- TGI (UO-31 renal): 3.59 µM
- TGI (PC-3 prostate): 3.38 µM

Compound: COc1cc(C(SCc2ccccc2)SCc2ccccc2)ccc1O
- TGI (SR leukemia): > 10 µM
- TGI (M14 melanoma): > 10 µM
- TGI (HL-60(TB) leukemia): > 10 µM
- TGI (IGROV1 ovarian): > 10 µM
- TGI (U251 CNS): > 10 µM
- TGI (RXF 393 renal): > 10 µM
- TGI (UO-31 renal): > 10 µM
- TGI (PC-3 prostate): > 10 µM

Compound: Cc1n(CC(=O)c2ccccc2)nc2sc(N)n[n+]12
- TGI (OVCAR-4 ovarian): > 100 µM
- TGI (MDA-MB-435): > 100 µM
- TGI (M14 melanoma): > 100 µM
- TGI (IGROV1 ovarian): > 100 µM
- TGI (U251 CNS): > 100 µM
- TGI (RXF 393 renal): > 100 µM
- TGI (UO-31 renal): > 100 µM
- TGI (PC-3 prostate): > 100 µM

Compound: Cc1ccc2nc(Cl)c(/C=N/N3C(=O)/C(=C/c4ccc(N(C)C)cc4)N=C3c3ccccc3)cc2c1
- TGI (OVCAR-4 ovarian): > 100 µM
- TGI (SR leukemia): > 100 µM
- TGI (MDA-MB-435): 65.8 µM
- TGI (M14 melanoma): > 100 µM
- TGI (HL-60(TB) leukemia): > 100 µM
- TGI (IGROV1 ovarian): > 100 µM
- TGI (U251 CNS): > 100 µM
- TGI (UO-31 renal): > 100 µM
- TGI (PC-3 prostate): > 100 µM

Compound: CC1(C)[C@@H]2C[C@H]1C(Cc1cccc(C[C@H]3c4cc(-c5ccccn5)ncc4[C@H]4C[C@@H]3C4(C)C)c1)c1cc(-c3ccccn3)ncc12 (stereo partly specified)
- TGI (OVCAR-4 ovarian): > 100 µM
- GI50 (SR leukemia): 0.439 µM
- TGI (SR leukemia): 2.63 µM
- TGI (MDA-MB-435): > 58.5 µM
- GI50 (M14 melanoma): 0.858 µM
- TGI (M14 melanoma): 8.45 µM
- GI50 (IGROV1 ovarian): 0.662 µM
- TGI (IGROV1 ovarian): > 100 µM
- TGI (U251 CNS): 16.3 µM
- TGI (RXF 393 renal): > 100 µM
- TGI (UO-31 renal): 6.15 µM
- TGI (PC-3 prostate): > 47.2 µM

Compound: Nc1c(S(=O)(=O)O)cc(Nc2cccc(S(=O)(=O)/C=C/S(=O)(=O)O)c2)c2c1C(=O)c1ccccc1C2=O
- TGI (OVCAR-4 ovarian): > 100 µM
- TGI (SR leukemia): > 100 µM
- TGI (MDA-MB-435): > 100 µM
- TGI (M14 melanoma): > 100 µM
- TGI (HL-60(TB) leukemia): > 100 µM
- TGI (IGROV1 ovarian): > 100 µM
- TGI (U251 CNS): > 100 µM
- TGI (RXF 393 renal): > 100 µM
- TGI (PC-3 prostate): > 100 µM

Compound: COc1ccc(/C=N/n2c(Cc3ccc(Cl)cc3)n[nH]c2=O)c(OC)c1
- TGI (OVCAR-4 ovarian): 41.6 µM
- TGI (MDA-MB-435): > 100 µM
- TGI (M14 melanoma): > 100 µM
- TGI (IGROV1 ovarian): > 100 µM
- TGI (U251 CNS): > 100 µM
- TGI (RXF 393 renal): 41.7 µM
- TGI (UO-31 renal): > 100 µM
- TGI (PC-3 prostate): > 100 µM

Compound: O=c1[nH]c2ccccc2c2oc(-c3ccccc3)nc12
- TGI (OVCAR-4 ovarian): > 100 µM
- TGI (SR leukemia): 70.7 µM
- TGI (MDA-MB-435): 38 µM
- TGI (M14 melanoma): > 100 µM
- TGI (IGROV1 ovarian): > 100 µM
- TGI (U251 CNS): 60.8 µM
- TGI (RXF 393 renal): 44 µM
- TGI (UO-31 renal): > 100 µM
- TGI (PC-3 prostate): > 100 µM

Compound: Nc1nc2cc(CNc3ccc(C(=O)NC(CCC(=O)O)C(=O)O)cc3)ccc2nc1-c1ccccc1 (stereo unspecified)
- TGI (OVCAR-4 ovarian): > 10 µM
- TGI (MDA-MB-435): > 10 µM
- TGI (M14 melanoma): > 10 µM
- TGI (HL-60(TB) leukemia): > 10 µM
- TGI (IGROV1 ovarian): > 10 µM
- TGI (U251 CNS): > 10 µM
- TGI (RXF 393 renal): > 10 µM
- TGI (UO-31 renal): > 10 µM
- TGI (PC-3 prostate): > 10 µM

Compound: COc1nc2[nH]ccc2c(=O)n1C
- TGI (OVCAR-4 ovarian): 41.5 µM
- TGI (SR leukemia): > 100 µM
- TGI (M14 melanoma): > 100 µM
- TGI (HL-60(TB) leukemia): > 100 µM
- TGI (IGROV1 ovarian): > 100 µM
- TGI (U251 CNS): > 100 µM
- TGI (RXF 393 renal): > 100 µM

Compound: COc1cc(-c2nc3nc(N4CCN(C)CC4)ccc3[nH]2)c(OC)c2[nH]c(COC(C)=O)nc12
- TGI (OVCAR-4 ovarian): > 100 µM
- TGI (SR leukemia): > 100 µM
- TGI (MDA-MB-435): > 100 µM
- TGI (M14 melanoma): 34.4 µM
- TGI (IGROV1 ovarian): > 100 µM
- TGI (U251 CNS): 46.5 µM
- TGI (RXF 393 renal): 86.7 µM
- TGI (UO-31 renal): 85.2 µM

Compound: c1ccc(Nc2nnc(-c3nsc4ccccc34)o2)cc1
- TGI (OVCAR-4 ovarian): > 100 µM
- TGI (SR leukemia): > 100 µM
- TGI (M14 melanoma): > 100 µM
- TGI (HL-60(TB) leukemia): > 100 µM
- TGI (IGROV1 ovarian): > 100 µM
- TGI (U251 CNS): > 100 µM
- TGI (RXF 393 renal): > 100 µM
- TGI (UO-31 renal): > 100 µM
